Measured values published in US20240033211A1, “EXTRACT OF AT LEAST ONE PLANT OF THE CROCUS SATIVUS SPECIES COMPRISING A HIGH CONTENT OF CROCINS AND A LOW CONTENT OF SAFRANAL, AND COSMETIC USE THEREOF AS ANTIOXIDANT” (L'OREAL, priority 2020, published 2024).

Experiment: Study of squalene peroxidation (UVA, hematoporphyrin photosensitizer, singlet oxygen)
Type: biochemical
Source text: Protocol: The principle of the test is to determine, via the assaying of squalene (Sq) and its photo-oxidation product, the efficacy of an active agent against this form of photo-peroxidation.
The test makes use of squalene in the presence of a photosensitizer, hematoporphyrin. Under the action of UVA rays, singlet oxygen (^1O2) is generated. This highly reactive form of oxygen degrades the squalene by oxidation of the double bonds to form squalene hydroperoxides (Sq-OOH).
In the context of the test, the exposure of squalene combined with hematoporphyrin is carried out in the presence of various concentrations of extract obtained according to Example 2 (according to the invention) and according to Example 3 (outside the invention). The reaction medium is ethanol.
Equipment and Reagents: • Squalene [Sigma S-3626] • Hematoporphyrine Free Base (approx. 70%) [Sigma—ref H-7253] • HPLC or UPLC system in reverse phase mode, detection in UV mode (205 nm)
Procedure: • ethanol solution containing 500 μg/ml of Sq and 2 μg/ml hematoporphyrin+extract to be tested • expose to UVA rays for the dose of 5 J/cm^2 • measure the amount of Sq and SqOOH before and after exposure • plot % inhibition as a function of the amount of extract tested.
*IC25: concentration of raw material needed to inhibit squalene peroxidation by 25%. […]

vitamin E
IC50 (squalene peroxidation) (comparison value for vitamin E, printed as % (=250 ppm)): ~0.025%
IC50 (concentration of raw material needed to inhibit squalene peroxidation by 50%) (solution in ethanol, UVA 5 J/cm^2): ~250 ppm
